Measured values taken from paper PMC6199309, “A therapeutic approach to pantothenate kinase associated neurodegeneration” (Nature Communications, 2018).
Like-named read-outs stand apart in the source and are kept apart here.

Legend:
AMPK-alpha2 = biological target: T1, AMPK-alpha2 (Homo sapiens, UniProt P54646); assay: KINOMEscan; type: binding; conditions: read-out: %Ctrl @ 10000nM
T1 construct: purchased DiscoverX KINOMEscan

ANKK1 = biological target: T2, ANKK1 (Homo sapiens, UniProt Q8NFD2); assay: KINOMEscan; type: binding; conditions: read-out: %Ctrl @ 10000nM
T2 construct: purchased DiscoverX KINOMEscan

BIKE = biological target: T3, BIKE (Homo sapiens, UniProt Q9NSY1); assay: KINOMEscan; type: binding; conditions: read-out: %Ctrl @ 10000nM
T3 construct: purchased DiscoverX KINOMEscan

BMPR2 = biological target: T4, BMPR2 (Homo sapiens, UniProt Q13873); assay: KINOMEscan; type: binding; conditions: read-out: %Ctrl @ 10000nM
T4 construct: purchased DiscoverX KINOMEscan

CAMK1D = biological target: T5, CAMK1D (Homo sapiens, UniProt Q8IU85); assay: KINOMEscan; type: binding; conditions: read-out: %Ctrl @ 10000nM
T5 construct: purchased DiscoverX KINOMEscan

CAMK1G = biological target: T6, CAMK1G (Homo sapiens, UniProt Q96NX5); assay: KINOMEscan; type: binding; conditions: read-out: %Ctrl @ 10000nM
T6 construct: purchased DiscoverX KINOMEscan

CHEK2 = biological target: T7, CHEK2 (Homo sapiens, UniProt O96017); assay: KINOMEscan; type: binding; conditions: read-out: %Ctrl @ 10000nM
T7 construct: purchased DiscoverX KINOMEscan

CLK4 = biological target: T8, CLK4 (Homo sapiens, UniProt Q9HAZ1); assay: KINOMEscan; type: binding; conditions: read-out: %Ctrl @ 10000nM
T8 construct: purchased DiscoverX KINOMEscan

DMPK = biological target: T9, DMPK (Homo sapiens, UniProt Q09013); assay: KINOMEscan; type: binding; conditions: read-out: %Ctrl @ 10000nM
T9 construct: purchased DiscoverX KINOMEscan

EPHB3 = biological target: T10, EPHB3 (Homo sapiens, UniProt P54753); assay: KINOMEscan; type: binding; conditions: read-out: %Ctrl @ 10000nM
T10 construct: purchased DiscoverX KINOMEscan

EPHB4 = biological target: T11, EPHB4 (Homo sapiens, UniProt P54760); assay: KINOMEscan; type: binding; conditions: read-out: %Ctrl @ 10000nM
T11 construct: purchased DiscoverX KINOMEscan

FGFR3 = biological target: T12, FGFR3 (Homo sapiens, UniProt P22607); assay: KINOMEscan; type: binding; conditions: read-out: %Ctrl @ 10000nM
T12 construct: purchased DiscoverX KINOMEscan

FLT3-autoinhibited = biological target: T13, FLT3-autoinhibited (Homo sapiens, UniProt P36888); assay: KINOMEscan; type: binding; conditions: read-out: %Ctrl @ 10000nM
T13 construct: purchased DiscoverX KINOMEscan

GCN2(Kin.Dom.2,S808G) = biological target: T14, GCN2(Kin.Dom.2,S808G) (Homo sapiens, UniProt Q9P2K8, S808G); assay: KINOMEscan; type: binding; conditions: read-out: %Ctrl @ 10000nM
T14 construct: GCN2(Kin.Dom.2,S808G); purchased DiscoverX KINOMEscan

KIT(A829P) = biological target: T15, KIT(A829P) (Homo sapiens, UniProt P10721, A829P); assay: KINOMEscan; type: binding; conditions: read-out: %Ctrl @ 10000nM
T15 construct: purchased DiscoverX KINOMEscan

KIT(D816V) = biological target: T16, KIT(D816V) (Homo sapiens, UniProt P10721, D816V); assay: KINOMEscan; type: binding; conditions: read-out: %Ctrl @ 10000nM
T16 construct: purchased DiscoverX KINOMEscan

MAP3K4 = biological target: T17, MAP3K4 (Homo sapiens, UniProt Q9Y6R4); assay: KINOMEscan; type: binding; conditions: read-out: %Ctrl @ 10000nM
T17 construct: purchased DiscoverX KINOMEscan

NEK7 = biological target: T18, NEK7 (Homo sapiens, UniProt Q8TDX7); assay: KINOMEscan; type: binding; conditions: read-out: %Ctrl @ 10000nM
T18 construct: purchased DiscoverX KINOMEscan

PHKG2 = biological target: T19, PHKG2 (Homo sapiens, UniProt P15735); assay: KINOMEscan; type: binding; conditions: read-out: %Ctrl @ 10000nM
T19 construct: purchased DiscoverX KINOMEscan

[1] = biological target: T20, RPS6KA4(Kin.Dom.1-N-terminal) (Homo sapiens, UniProt O75676); assay: KINOMEscan; type: binding; conditions: read-out: %Ctrl @ 10000nM
T20 construct: RPS6KA4(Kin.Dom.1-N-terminal); purchased DiscoverX KINOMEscan

[2] = biological target: T21, RSK4(Kin.Dom.2-C-terminal) (Homo sapiens, UniProt Q9UK32); assay: KINOMEscan; type: binding; conditions: read-out: %Ctrl @ 10000nM
T21 construct: RSK4(Kin.Dom.2-C-terminal); purchased DiscoverX KINOMEscan

SGK2 = biological target: T22, SGK2 (Homo sapiens, UniProt Q9HBY8); assay: KINOMEscan; type: binding; conditions: read-out: %Ctrl @ 10000nM
T22 construct: purchased DiscoverX KINOMEscan

SIK2 = biological target: T23, SIK2 (Homo sapiens, UniProt Q9H0K1); assay: KINOMEscan; type: binding; conditions: read-out: %Ctrl @ 10000nM
T23 construct: DNA tag for qPCR (T7 phage fusion or DNA label); purchased DiscoverX KdELECT; host or cells: E. coli BL21-derived (T7 phage) or HEK-293

TBK1 = biological target: T24, TBK1 (Homo sapiens, UniProt Q9UHD2); assay: KINOMEscan; type: binding; conditions: read-out: %Ctrl @ 10000nM
T24 construct: purchased DiscoverX KINOMEscan

TLK1 = biological target: T25, TLK1 (Homo sapiens, UniProt Q9UKI8); assay: KINOMEscan; type: binding; conditions: read-out: %Ctrl @ 10000nM
T25 construct: purchased DiscoverX KINOMEscan

TNK2 = biological target: T26, TNK2 (Homo sapiens, UniProt Q07912); assay: KINOMEscan; type: binding; conditions: read-out: %Ctrl @ 10000nM
T26 construct: purchased DiscoverX KINOMEscan

[3] = biological target: T27, TYK2(JH1domain-catalytic) (Homo sapiens, UniProt P29597); assay: KINOMEscan; type: binding; conditions: read-out: %Ctrl @ 10000nM
T27 construct: TYK2(JH1domain-catalytic); DNA label for qPCR (T7 phage fusion or DNA tag); purchased DiscoverX scanMAX; host or cells: E. coli BL21-derived (T7 phage) or HEK-293

[4] = Pharmacokinetics in plasma of male BALB/c mice; type: in vivo; conditions: mouse
Protocol: Supplementary Table 2. […] Mean pharmacokinetic parameters of PZ- […]
administration to male BALB/c micea.
Dose Tmax C0/ Cmaxc AUClast AUCinf T1/2 CL Vss %Fd […]
aPharmacokinetics measurements performed by Sai Life Sciences Limited. […]
cBack extrapolated concentration for i.v. group. dBioavailability was calculated based on AUClast.

T14 sequence (Q9P2K8 590-1001 S808G limits assumed): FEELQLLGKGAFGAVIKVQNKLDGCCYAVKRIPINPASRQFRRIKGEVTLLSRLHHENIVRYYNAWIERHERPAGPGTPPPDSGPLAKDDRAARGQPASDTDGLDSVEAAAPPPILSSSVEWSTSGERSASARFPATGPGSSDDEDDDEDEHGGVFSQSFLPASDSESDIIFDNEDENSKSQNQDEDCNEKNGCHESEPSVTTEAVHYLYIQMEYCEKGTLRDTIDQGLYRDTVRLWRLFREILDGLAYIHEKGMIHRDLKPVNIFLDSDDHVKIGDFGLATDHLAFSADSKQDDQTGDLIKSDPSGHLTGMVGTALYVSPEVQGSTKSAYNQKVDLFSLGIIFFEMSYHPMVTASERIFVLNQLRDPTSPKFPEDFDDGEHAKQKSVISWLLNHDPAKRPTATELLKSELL
T22 sequence (Q9HBY8 whole entry): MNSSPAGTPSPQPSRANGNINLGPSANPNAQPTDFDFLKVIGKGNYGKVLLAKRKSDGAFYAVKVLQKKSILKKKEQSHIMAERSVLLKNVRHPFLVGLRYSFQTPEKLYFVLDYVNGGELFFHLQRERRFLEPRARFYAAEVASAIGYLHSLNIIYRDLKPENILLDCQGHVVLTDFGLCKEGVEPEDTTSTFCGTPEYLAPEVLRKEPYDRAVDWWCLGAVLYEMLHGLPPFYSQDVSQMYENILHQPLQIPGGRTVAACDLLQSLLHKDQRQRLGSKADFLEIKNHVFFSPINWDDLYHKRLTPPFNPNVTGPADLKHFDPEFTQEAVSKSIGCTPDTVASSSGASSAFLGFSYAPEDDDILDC
T9 sequence (Q09013 whole entry): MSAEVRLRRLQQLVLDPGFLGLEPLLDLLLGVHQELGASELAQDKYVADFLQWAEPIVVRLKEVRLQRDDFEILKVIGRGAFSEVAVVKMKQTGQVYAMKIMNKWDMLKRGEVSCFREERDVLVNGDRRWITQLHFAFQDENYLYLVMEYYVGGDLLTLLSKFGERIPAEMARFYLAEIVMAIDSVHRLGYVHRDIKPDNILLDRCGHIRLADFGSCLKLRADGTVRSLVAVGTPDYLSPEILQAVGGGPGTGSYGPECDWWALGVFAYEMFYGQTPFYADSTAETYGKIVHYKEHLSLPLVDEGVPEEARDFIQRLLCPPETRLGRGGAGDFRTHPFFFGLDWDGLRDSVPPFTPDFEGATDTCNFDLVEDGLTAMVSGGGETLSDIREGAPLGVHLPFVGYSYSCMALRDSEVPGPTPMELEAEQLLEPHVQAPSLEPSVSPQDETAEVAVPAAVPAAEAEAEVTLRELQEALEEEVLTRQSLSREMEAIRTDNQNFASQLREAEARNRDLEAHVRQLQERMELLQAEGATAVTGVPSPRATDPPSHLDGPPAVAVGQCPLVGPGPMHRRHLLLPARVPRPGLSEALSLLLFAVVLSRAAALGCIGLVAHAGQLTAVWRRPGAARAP
T1 sequence (P54646 whole entry): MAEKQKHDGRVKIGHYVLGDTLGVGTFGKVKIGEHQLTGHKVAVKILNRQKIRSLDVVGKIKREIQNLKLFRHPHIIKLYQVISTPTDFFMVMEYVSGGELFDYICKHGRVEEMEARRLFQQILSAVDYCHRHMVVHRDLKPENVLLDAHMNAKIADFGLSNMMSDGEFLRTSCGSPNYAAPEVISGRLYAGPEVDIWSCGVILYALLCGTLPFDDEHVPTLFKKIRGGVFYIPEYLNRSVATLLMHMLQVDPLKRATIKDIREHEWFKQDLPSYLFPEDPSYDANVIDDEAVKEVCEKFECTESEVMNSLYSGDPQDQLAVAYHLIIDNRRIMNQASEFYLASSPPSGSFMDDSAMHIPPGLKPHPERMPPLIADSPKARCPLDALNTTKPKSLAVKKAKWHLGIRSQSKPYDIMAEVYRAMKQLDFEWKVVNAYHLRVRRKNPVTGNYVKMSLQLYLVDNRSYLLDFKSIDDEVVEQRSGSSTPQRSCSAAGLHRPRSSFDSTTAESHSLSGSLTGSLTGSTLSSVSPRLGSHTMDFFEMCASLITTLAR
T16 sequence (P10721 26-976 D816V): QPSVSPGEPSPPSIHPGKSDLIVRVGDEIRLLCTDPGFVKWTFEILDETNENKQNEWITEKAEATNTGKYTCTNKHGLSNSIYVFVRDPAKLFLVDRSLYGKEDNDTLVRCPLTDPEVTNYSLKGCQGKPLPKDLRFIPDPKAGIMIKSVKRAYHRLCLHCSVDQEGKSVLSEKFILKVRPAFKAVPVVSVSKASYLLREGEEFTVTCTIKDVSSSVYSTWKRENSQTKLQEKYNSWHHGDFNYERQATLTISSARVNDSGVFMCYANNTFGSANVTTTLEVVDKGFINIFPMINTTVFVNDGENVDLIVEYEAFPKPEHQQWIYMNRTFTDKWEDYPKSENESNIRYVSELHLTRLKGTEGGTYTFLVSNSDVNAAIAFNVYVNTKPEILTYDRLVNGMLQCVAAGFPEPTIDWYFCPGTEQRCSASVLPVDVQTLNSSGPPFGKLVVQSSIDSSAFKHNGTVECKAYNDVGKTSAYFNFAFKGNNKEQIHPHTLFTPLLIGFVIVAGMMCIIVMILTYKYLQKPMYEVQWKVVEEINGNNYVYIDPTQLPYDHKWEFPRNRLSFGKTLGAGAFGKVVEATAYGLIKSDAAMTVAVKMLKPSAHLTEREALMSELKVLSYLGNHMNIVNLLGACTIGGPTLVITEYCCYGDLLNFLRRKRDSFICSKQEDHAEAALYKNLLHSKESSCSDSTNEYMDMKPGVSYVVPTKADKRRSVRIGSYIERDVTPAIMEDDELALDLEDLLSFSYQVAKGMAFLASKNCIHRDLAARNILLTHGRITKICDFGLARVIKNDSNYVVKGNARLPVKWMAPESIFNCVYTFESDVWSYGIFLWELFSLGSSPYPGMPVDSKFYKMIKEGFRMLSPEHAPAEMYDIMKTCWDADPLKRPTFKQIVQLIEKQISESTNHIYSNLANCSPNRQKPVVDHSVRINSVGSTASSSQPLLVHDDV
T23 sequence (Q9H0K1 whole entry, the tested form may be a part): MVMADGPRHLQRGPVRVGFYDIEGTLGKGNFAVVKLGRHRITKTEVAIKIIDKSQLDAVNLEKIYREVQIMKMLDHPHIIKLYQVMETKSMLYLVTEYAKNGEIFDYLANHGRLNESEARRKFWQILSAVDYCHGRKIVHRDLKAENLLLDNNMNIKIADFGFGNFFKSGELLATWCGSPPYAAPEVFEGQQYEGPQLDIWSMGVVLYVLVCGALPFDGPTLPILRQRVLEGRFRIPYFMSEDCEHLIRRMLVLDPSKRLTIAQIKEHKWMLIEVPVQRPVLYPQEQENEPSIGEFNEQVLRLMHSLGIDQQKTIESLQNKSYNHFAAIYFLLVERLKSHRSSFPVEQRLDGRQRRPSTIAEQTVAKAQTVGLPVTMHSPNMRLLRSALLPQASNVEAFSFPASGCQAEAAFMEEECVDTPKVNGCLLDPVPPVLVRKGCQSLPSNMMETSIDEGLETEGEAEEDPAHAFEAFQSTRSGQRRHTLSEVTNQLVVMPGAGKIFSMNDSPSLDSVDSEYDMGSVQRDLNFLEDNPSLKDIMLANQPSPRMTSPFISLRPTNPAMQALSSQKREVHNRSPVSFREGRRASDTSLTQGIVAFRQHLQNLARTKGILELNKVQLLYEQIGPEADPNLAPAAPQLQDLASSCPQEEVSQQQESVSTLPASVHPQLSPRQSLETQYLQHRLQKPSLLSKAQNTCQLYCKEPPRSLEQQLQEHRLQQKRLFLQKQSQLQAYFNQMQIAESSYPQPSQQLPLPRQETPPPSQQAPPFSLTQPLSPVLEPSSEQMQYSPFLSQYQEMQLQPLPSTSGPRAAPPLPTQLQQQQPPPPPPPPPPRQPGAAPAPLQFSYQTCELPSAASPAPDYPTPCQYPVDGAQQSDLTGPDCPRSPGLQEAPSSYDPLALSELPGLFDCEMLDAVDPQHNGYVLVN
T8 sequence (Q9HAZ1 whole entry): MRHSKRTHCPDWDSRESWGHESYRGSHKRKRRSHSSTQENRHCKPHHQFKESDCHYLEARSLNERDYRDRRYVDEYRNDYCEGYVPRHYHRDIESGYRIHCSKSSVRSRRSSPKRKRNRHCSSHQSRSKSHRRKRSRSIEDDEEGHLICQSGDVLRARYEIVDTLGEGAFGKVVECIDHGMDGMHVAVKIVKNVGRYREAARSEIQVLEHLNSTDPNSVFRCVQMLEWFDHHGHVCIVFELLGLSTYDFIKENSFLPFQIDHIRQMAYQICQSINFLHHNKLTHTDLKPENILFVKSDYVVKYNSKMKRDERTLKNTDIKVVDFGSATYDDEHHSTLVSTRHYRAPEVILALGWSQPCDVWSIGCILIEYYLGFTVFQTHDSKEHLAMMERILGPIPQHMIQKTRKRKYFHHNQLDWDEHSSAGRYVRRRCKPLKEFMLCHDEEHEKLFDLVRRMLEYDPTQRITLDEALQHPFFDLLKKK
T5 sequence (Q8IU85 whole entry): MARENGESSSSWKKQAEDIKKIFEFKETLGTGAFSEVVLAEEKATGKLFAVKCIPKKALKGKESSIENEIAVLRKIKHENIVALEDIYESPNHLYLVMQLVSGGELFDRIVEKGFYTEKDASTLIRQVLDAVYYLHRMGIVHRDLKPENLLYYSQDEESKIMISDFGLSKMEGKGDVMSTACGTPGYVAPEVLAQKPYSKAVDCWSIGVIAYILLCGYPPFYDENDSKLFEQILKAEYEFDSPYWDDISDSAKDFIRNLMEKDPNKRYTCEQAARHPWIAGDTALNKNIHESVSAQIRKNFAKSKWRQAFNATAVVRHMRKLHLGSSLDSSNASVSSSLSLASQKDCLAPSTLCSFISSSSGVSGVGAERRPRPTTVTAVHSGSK
T15 sequence (P10721 26-976 A829P): as the sequence (P10721 26-976 D816V) above, with V791D, A804P counted along it

Structure (SMILES): CC(C)c1ccc(CC(=O)N2CCN(c3ccc(C#N)nn3)CC2)cc1 [PZ-2891, 6-(4-(2-(4-isopropylphenyl)acetyl)piperazin-1-yl)pyridazine-3-carbonitrile]
- remaining binding at 10 µM (AMPK-alpha2): 100%
- remaining binding at 10 µM (ANKK1): 78%
- remaining binding at 10 µM (BIKE): 100%
- remaining binding at 10 µM (BMPR2): 87%
- remaining binding at 10 µM (CAMK1D): 95%
- remaining binding at 10 µM (CAMK1G): 83%
- remaining binding at 10 µM (CHEK2): 79%
- remaining binding at 10 µM (CLK4): 98%
- remaining binding at 10 µM (DMPK): 89%
- remaining binding at 10 µM (EPHB3): 92%
- remaining binding at 10 µM (EPHB4): 97%
- remaining binding at 10 µM (FGFR3): 96%
- remaining binding at 10 µM (FLT3-autoinhibited): 82%
- remaining binding at 10 µM (GCN2(Kin.Dom.2,S808G)): 87%
- remaining binding at 10 µM (KIT(A829P)): 91%
- remaining binding at 10 µM (KIT(D816V)): 92%
- remaining binding at 10 µM (MAP3K4): 93%
- remaining binding at 10 µM (NEK7): 75%
- remaining binding at 10 µM (PHKG2): 100%
- remaining binding at 10 µM [1]: 96%
- remaining binding at 10 µM [2]: 71%
- remaining binding at 10 µM (SGK2): 64%
- remaining binding at 10 µM (SIK2): 9.5%
- remaining binding at 10 µM (TBK1): 60%
- remaining binding at 10 µM (TLK1): 72%
- remaining binding at 10 µM (TNK2): 98%
- remaining binding at 10 µM [3]: 67%
- half-life ([4]; intravenous, 2 mg/kg, mice plasma, read-out: T1/2 (mice plasma)): 17 min
- AUC(0-inf) ([4]; plasma, iv, i.v. 2 mg/kg): 611 ng·h/mL
- AUC(0-t) ([4]; plasma, iv, i.v. 2 mg/kg): 609 ng·h/mL
- clearance ([4]; plasma, iv, i.v. 2 mg/kg): 54.5 mL/min/kg
- C0 ([4]; plasma, iv, i.v. 2 mg/kg, back extrapolated concentration): 2810 ng/mL
- half-life ([4]; plasma, iv, i.v. 2 mg/kg, read-out: T1/2 (converted)): 16.8 min
- Vd ([4]; plasma, iv, i.v. 2 mg/kg, read-out: Vss): 0.94 L/kg
- AUC(0-inf) ([4]; plasma, po, p.o. 10 mg/kg): 1420 ng·h/mL
- AUC(0-t) ([4]; plasma, po, p.o. 10 mg/kg): 1400 ng·h/mL
- Cmax ([4]; plasma, po, p.o. 10 mg/kg): 1890 ng/mL
- Tmax ([4]; plasma, po, p.o. 10 mg/kg): 15 min
